According to US20100120738A1, “ANTI-APOPTOTIC BENZODIAZEPINE RECEPTOR LIGAND INHIBITORS” (priority 2006, published 2010):
pEC50, pIC50, pKi: −log10 of the molar value. Like-named read-outs stand apart in the source and are kept apart here.

Assays:
[1] = Superoxide dismutase (SOD) activity; assay type: biochemical
[2] = tested on: cultured mesencephalic tissue slices; assay: MPP+ induced neurodegeneration in cultured mesencephalic tissue slices (LDH release); assay type: cell-based, rat; details: 20 μM MPP+; for prevention of cytotoxicity induced by MPP+: compound 100 nM, 1.0 μM, 10 μM, FIG. 17
Protocol: FIG. 17 is a graphical representation showing the effects of exemplary low molecular weight metalloporphyrin compounds of the present invention on MPP+ induced neurodegeneration in cultured mesencephalic tissue slices. Mesencephalic tissue slices were prepared from PND 3-5 rats and maintained in culture for 2 weeks. The tissue slices were incubated with a porphyrin compound as indicated on the x-axis for 6 hours before adding 20 μM MPP+ to induce neuronal apoptosis. Concentrations of each porphyrin compound tested were 100 nM ? 1.0 μM ? and 10 μM ? Following a further incubation for 48 hours, the slices were collected and the level of lactate dehydrogenase (LDH) released into the medium was determined.

[3] = tested on: Bovine capillary endothelial cells; assay: Protection against radiation-induced apoptosis (DAPI apoptotic index); assay type: cell-based; details: for concentration providing protection from the apoptotic effects of ionizing radiation: DAPI staining, apoptotic index, 6 h
Protocol: Bovine capillary endothelial cells were cultured on eight chamber Labtek slides and exposed to ionizing radiation (20 Gy) for 6 hours. After this time, cells were either left untreated or treated with compound at the concentration indicated on the x-axis. Cells were then fixed in methanol and stained with 5 μg/ml DAPI and DNA was visualized using a Nikon epifluorescence microscope, and apoptosis scored and expressed as an apoptotic index according to the percentage of apoptotic cells in a field of 100 cells. Open bars indicate apoptotic index following irradiation. Hatched bars indicate apoptotic index for control cells not receiving a dose of ionizing radiation.
(§1) Bovine capillary endothelial cells were cultured on eight-chamber Labtek slides and exposed to ionizing radiation (20 Gy), which was calibrated using an X-ray exposure meter. […] In control experiments, cells either received no ionizing radiation (sham) or no compound. After 6 h incubation, the cells were fixed in methanol and stained with 5 μg/ml 4,6-diamidino-2-phenylindole (DAPI). DNA was visualized using a Nikon epifluorescence microscope, and apoptosis was scored and expressed as an apoptotic index (% apoptotic cells in a field of 100).

[4] = tested on: PC12 cells; assay: Protection against STS-induced apoptosis in PC12 cells (XTT viability assay); assay type: cell-based, rat
Protocol: Rat pheochromocytoma (PC12) cells were cultured in collagen-coated 96-well plates according to directions provided by the American Type Culture Collection. Staurosporine was added at various concentrations sufficient to induce apoptosis. Test compounds were added together with the staurosporine. Cells were incubated overnight at 37° C., 5% CO2. After 18-24 hours, test media was removed and cell viability was determined using the XTT viability assay described by Baker et al., J. Pharmacol. Exp, Therapeutics 284, 215-221, 1998, the contents of which are incorporated herein by reference.

[5] = tested on: Bovine capillary endothelial cells; assay: Cytotoxicity/necrosis of non-irradiated cells (LDH release, field number); assay type: cell-based
Protocol: as §1, with “100). […] Field number was also calculated for all other compounds tested as a control (results not shown).” for “100).”
To determine cytotoxicity of the compounds under these conditions, duplicate samples of the cells receiving a dose of compound at each concentration tested in the absence of a dose of ionizing radiation were assayed for release of LDH into the culture medium.

[6] = Lipophilicity by octanol partitioning; assay type: physicochemical; details: for Log10 P value / P value (octanol partitioning coefficient): octanol-water
Protocol: To indicate the likelihood that the compounds will cross lipid membranes and be absorbed once administered by oral means, their lipophilicities were determined by octanol partitioning. […] Quantitation was performed by HPLC-UV.

[7] = Oral bioavailability in vivo, plasma levels by LC-MS/MS after intragastric gavage; parameters: species or system rat; details: intragastric gavage, 4 mg/kg EUK-418 or 2 mg/kg EUK-423
Protocol: FIG. 18 is a graphical representation showing the bioavailability in vivo for the compounds {[{(Porphine-5,15-diyl)bis[cyclopropyl-diyl]}](2-)-N^21,N^22,N^23,N^24} manganese(III) acetate (EUK-418) and {[{(Porphine-5,15-diyl)bis[benzyl-diyl]}](2-)-N^21,N^22,N^23,N^24} manganese(III) acetate (EUK-423) in rats. Fasted and fed Sprague-Dawley rats were dosed by intragastric gavage with either 4 mg/kg EUK-418 or 2 mg/kg EUK-423. At the times indicated on the x-axis, plasma was obtained from the animals and the concentrations of compounds determined by LC-MS/MS.
Fasted and fed Sprague-Dawley rats were dosed by intragastric gavage with either 4 mg/kg EUK-418 or 2 mg/kg EUK-423. At time points up to 7 hr post-administration, animals were sacrificed, their blood collected over heparin, plasma samples prepared by centrifugation, and plasma levels of the compounds were determined by LC-MS/MS.

[8] = Stability in USP simulated gastric fluid (SGF); assay type: in vitro ADME; details: 37° C., pH approx. 1.2
From the text: Aliquots of SGF were withdrawn and intact compound quantitated by HPLC-UV.

[9] = target: mitochondrial benzodiazepine receptor (mBzR) (Homo sapiens, UniProt P30536); assay: Inhibition of tritiated PK11195 binding to the receptor; details: read-out: Ki against the binding of PK11195
Protocol: Standard methods e.g., competition assays, are used to determine ge an inhibition, prevention or delay in binding of a ligand of a mitochondrial benzodiazepine receptor by a low molecular weight porphyrin derivative compound of the invention. As exemplified herein, labelled PK11195 compound is contacted with the receptor in the presence of different concentrations of a compound being tested and binding of the labelled PK11195 compound is determined. […] Preferably, the concentration of the compound being tested that inhibits binding of the ligand by 50% (i.e., […]) is determined.
FIG. 15 is a graphical representation showing the ability of the compounds {[{(Porphine-5,15-diyl)bis[cyclopropyl-diyl]}](2-)-N^21,N^22,N^23,N^24} manganese (III) acetate (EUK-418) and (5,10,15,20-Tetra ethylporphyrinato) manganese (III) acetate (EUK-425) to inhibit binding of tritiated PK11195 to the mitochondrial benzodiazepine receptor (mBzR). The Ki value for each compound is indicated.
FIG. 16 is a tabular representation showing a series of low molecular weight metalloporphyrin compounds designated EUK-418, EUK-423, EUK-424, EUK-425 and EUK-426, that inhibit ligand binding to the mitochondrial benzodiazepine receptor (mBzR) with moderate affinity, as determined by the Ki value (last column) for inhibition of tritiated PK11195, binding to the receptor. […]

[10] = Plasma recovery after oral dose (another study); assay type: in vivo; details: 3.5 mg/kg dose administered orally; not shown
[11] = cuvette format, read-out: Cuvette IC50
[12] = microplate format, read-out: Microplate IC50
[13] = FIG. 12, at up to about 5 μM concentration, toxicity blunts protection at high concentrations
[14] = FIG. 12, among compounds tested

Sequence of mitochondrial benzodiazepine receptor (mBzR) (P30536 whole entry, species assumed): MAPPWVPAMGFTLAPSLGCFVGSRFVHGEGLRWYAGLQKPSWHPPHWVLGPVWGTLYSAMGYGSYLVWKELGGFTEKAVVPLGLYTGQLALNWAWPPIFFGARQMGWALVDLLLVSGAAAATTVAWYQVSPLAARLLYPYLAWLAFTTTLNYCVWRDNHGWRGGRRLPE

Compound	pIC50 [1, 11]	pIC50 [1, 12]	prevention of cytotoxicity induced by MPP+ [2]	effect on staurosporine-induced apoptosis of PC12 cells [4, 13]	Log10 P value [6]	P value (octanol partitioning coefficient) [6]	Percentage remaining after 90 mins in SGF [8] [%]	further results
CC(=O)O.CCOc1cccc(C=NCCN=Cc2cccc(OCC)c2O)c1O.[Mn] [EUK-189, reference compound]	6.26	6.08						
C1=Cc2nc1cc1ccc([n-]1)c(-c1ccccc1)c1nc(cc3ccc([n-]3)c2-c2ccccc2)C=C1.CC(=O)[O-].[Mn+3] [EUK-423, {[{(Porphine-5,15-diyl)bis[benzyl-diyl]}](2-)-N^21,N^22,N^23,N^24} manganese(III) acetate]	4.76	5.39	prevent cytotoxicity	effectively reduce apoptosis	0.907 ± 0.002	8.07 ± 0.10	91.2	concentration providing protection from the apoptotic effects of ionizing radiation ([3]; 20 Gy): 3 to 10 µM; protection of cells exposed to ionizing radiation ([3]; about 3-10 μM compound, 20 Gy, p<0.006): approximately 87%; protection of cells exposed to ionizing radiation ([3]; low doses, FIG. 13 and FIG. 14): protected; effect on staurosporine-induced apoptosis of PC12 cells ([4]; FIG. 11): effectively reduce apoptosis; necrosis at the protective concentration ([5]; 3 μM EUK-418, about 3-10 μM EUK-423): no detectable necrosis; concentration causing significant increase in field number for control cells, indicating cytotoxicity ([5]; control cells without ionizing radiation): ≥ 30 µM; plasma time course [7]: increased in plasma during the first four hour period; found in plasma / bioavailable after oral administration ([7]; fasted and fed rats): bioavailable in vivo
CC(=O)[O-].CC(C)c1c2nc(c(C(C)C)c3ccc([n-]3)c(C(C)C)c3nc(c(C(C)C)c4ccc1[n-]4)C=C3)C=C2.[Mn+3] [EUK-424, (5,10,15,20-Tetraisopropylporphyrinato)manganese (III) acetate]			prevent cytotoxicity					
CC(=O)[O-].CCc1c2nc(c(CC)c3ccc([n-]3)c(CC)c3nc(c(CC)c4ccc1[n-]4)C=C3)C=C2.[Mn+3] [EUK-425, (5,10,15,20-Tetraethylporphyrinato)manganese (III) acetate]	4.49	6.36	prevent cytotoxicity	effectively reduce apoptosis	0.932 ± 0.006	8.56 ± 0.35	97.0	pEC50 ([2]; LDH release, read-out: EC50 in MPP+ slice model): > 7.00; necrosis at the doses tested ([5]; range of 0.5 μM to 100 μM, data therefore expressed as field number): necrosis was observed; pKi [9]: 7.57
CC(=O)[O-].COc1ccc(-c2c3nc(cc4ccc([n-]4)c(-c4ccc(OC)cc4)c4nc(cc5ccc2[n-]5)C=C4)C=C3)cc1.[Mn+3] [EUK-450, {[{(Porphine-5,15-diyl)bis[benzene-1,4 diyl (4-methyl-oxy)]}](2-)-N^21,N^22,N^23,N^24} manganese(III) acetate]	5.00	5.51		effectively reduce apoptosis	0.650 ± 0.010	4.46 ± 0.11	98.1	
C1=Cc2nc1cc1ccc([n-]1)c(C1CCOCC1)c1nc(cc3ccc([n-]3)c2C2CCOCC2)C=C1.[Cl-].[Mn+3] [EUK-451, {[{(Porphine-5,15-diyl)bis[4-Tetrahydropyrano-diyl]}](2-)-N^21,N^22,N^23,N^24} manganese(III) chloride]	4.54	5.62		effectively reduce apoptosis	−0.660 ± 0.011	0.219 ± 0.005	100	relative activity against STS-induced apoptosis [4, 14]: highest activity; relative toxicity in PC12 model [4, 14]: lowest toxicity; recovery from plasma [10]: recovered from plasma at low levels
C1=Cc2nc1cc1ccc([n-]1)c(C1CCCCC1)c1nc(cc3ccc([n-]3)c2C2CCCCC2)C=C1.[Cl-].[Mn+3] [EUK-452, {[{(Porphine-5,15-diyl)bis[cyclohexyl-diyl]}](2-)-N^21,N^22,N^23,N^24} manganese(III) chloride]	4.70	5.04		effectively reduce apoptosis	1.973 ± 0.008	93.97 ± 1.67	98.2	concentration providing protection from the apoptotic effects of ionizing radiation ([3]; 20 Gy): 3 µM; lipophilicity ([6]; octanol partitioning): most lipophilic
CCCc1c2nc(cc3ccc([n-]3)c(CCC)c3nc(cc4ccc1[n-]4)C=C3)C=C2.[Cl-].[Mn+3] [EUK-453, {[{(Porphine-5,15-diyl)bis[propyl-diyl]}](2-)-N^21,N^22,N^23,N^24} manganese(III) chloride]	4.22	5.64		effectively reduce apoptosis	0.619 ± 0.017	4.16 ± 0.16	98.4	
